# Target: T1, human GPR17 receptor (Homo sapiens, UniProt Q13304)
# T1 construct: host or cells: HEK-293
# Assay: Calcium mobilization functional assay (Fluo-8, FLIPR TETRA) in HEK-293 hGPR17 (Gα-q assay)
# Assay type: cell-based
# Details: antagonism of MDL29,951 (~EC80) induced Ca2+ signal; cell line (HEK-293 hGPR17 or HEK-293 Suchi5 hGPR17) not given
# Method in brief: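 Fluo-8-loaded HEK-293 hGPR17 cells (60 min dye loading, room temperature) were preincubated with compound for twenty minutes, then challenged with agonist MDL29,951 at ~EC80, 500 nM. Intracellular calcium release via Gα-q was recorded as FLIPR fluorescence for a further 2 minutes; compounds tested in duplicate.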
# T1 sequence (Q13304 whole entry): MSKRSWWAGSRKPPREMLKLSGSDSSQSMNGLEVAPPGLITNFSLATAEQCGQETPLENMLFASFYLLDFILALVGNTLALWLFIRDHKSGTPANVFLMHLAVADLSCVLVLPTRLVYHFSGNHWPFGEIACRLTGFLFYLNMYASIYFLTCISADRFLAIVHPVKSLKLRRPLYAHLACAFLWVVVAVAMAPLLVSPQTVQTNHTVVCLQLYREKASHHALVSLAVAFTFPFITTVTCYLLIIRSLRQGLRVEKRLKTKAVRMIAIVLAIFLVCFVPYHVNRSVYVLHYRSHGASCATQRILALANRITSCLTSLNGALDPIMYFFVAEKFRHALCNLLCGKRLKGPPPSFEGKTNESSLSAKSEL
row,SMILES,IC50 [µM]
1,"N#Cc1ccccc1-c1cc(S(=O)(=O)Nc2cc(F)c(C(F)(F)F)cc2F)c[nH]1 [Cpd 355, 5-(2-cyanophenyl)-N-[2,5-difluoro-4-(trifluoromethyl)phenyl]-1H-pyrrole-3-sulfonamide]",0.5 to 5
2,"O=S(=O)(Nc1cc(F)c(C(F)(F)F)cc1F)c1c[nH]c(-c2cccc(Cl)c2)c1 [Cpd 356, 5-(3-chlorophenyl)-N-[2,5-difluoro-4-(trifluoromethyl)phenyl]-1H-pyrrole-3-sulfonamide]",0.5 to 5
3,"O=S(=O)(Nc1cc(F)c(Br)cc1F)c1c[nH]cc1-c1cccc(F)c1 [Cpd 359, N-(4-bromo-2,5-difluoro-phenyl)-4-(3-fluorophenyl)-1H-pyrrole-3-sulfonamide]",0.5 to 5
4,"O=S(=O)(Nc1cc(F)c(C(F)(F)F)cc1F)c1c[nH]c(-c2ccccc2C(F)(F)F)c1 [Cpd 361, N-[2,5-difluoro-4-(trifluoromethyl)phenyl]-5-[2-(trifluoromethyl)phenyl]-1H-pyrrole-3-sulfonamide]",0.5 to 5
5,"O=S(=O)(Nc1cc(F)c(C(F)(F)F)cc1F)c1c[nH]c(-c2ccc(Cl)cc2F)c1 [Cpd 362, 5-(4-chloro-2-fluoro-phenyl)-N-[2,5-difluoro-4-(trifluoromethyl)phenyl]-1H-pyrrole-3-sulfonamide]",5 to 50
6,"O=S(=O)(Nc1cc(F)c(C(F)(F)F)cc1F)c1c[nH]c(-c2c(F)cccc2Cl)c1 [Cpd 363, 5-(2-chloro-6-fluoro-phenyl)-N-[2,5-difluoro-4-(trifluoromethyl)phenyl]-1H-pyrrole-3-sulfonamide]",0.5 to 5
7,"O=S(=O)(Nc1cc(F)c(C(F)(F)F)cc1F)c1c[nH]cc1-c1cccc(F)c1 [Cpd 364, N-[2,5-difluoro-4-(trifluoromethyl)phenyl]-4-(3-fluorophenyl)-1H-pyrrole-3-sulfonamide]",0.5 to 5
8,"O=S(=O)(Nc1cc(F)c(C(F)(F)F)cc1F)c1c[nH]c(-c2cccc(C(F)(F)F)c2)c1 [Cpd 365, N-[2,5-difluoro-4-(trifluoromethyl)phenyl]-5-[3-(trifluoromethyl)phenyl]-1H-pyrrole-3-sulfonamide]",0.5 to 5
9,"O=S(=O)(Nc1cc(F)c(C(F)(F)F)cc1F)c1c[nH]c(-c2ccc(F)cc2F)c1 [Cpd 366, 5-(2,4-difluorophenyl)-N-[2,5-difluoro-4-(trifluoromethyl)phenyl]-1H-pyrrole-3-sulfonamide]",0.5 to 5
10,"COCc1cccc(Cc2c[nH]cc2S(=O)(=O)Nc2ccc(C#N)cc2F)c1 [Cpd 368, N-(4-cyano-2-fluoro-phenyl)-4-[[3-(methoxymethyl)phenyl]methyl]-1H-pyrrole-3-sulfonamide]",0.5 to 5
11,"O=S(=O)(Nc1cc(F)c(C(F)(F)F)cc1F)c1c[nH]c(-c2ccc(C(F)(F)F)cn2)c1 [Cpd 369, N-[2,5-difluoro-4-(trifluoromethyl)phenyl]-5-[5-(trifluoromethyl)-2-pyridyl]-1H-pyrrole-3-sulfonamide]",5 to 50
12,"O=S(=O)(Nc1cc(F)c(C(F)(F)F)cc1F)c1c[nH]c(-c2cc(C(F)(F)F)ccn2)c1 [Cpd 370, N-[2,5-difluoro-4-(trifluoromethyl)phenyl]-5-[4-(trifluoromethyl)-2-pyridyl]-1H-pyrrole-3-sulfonamide]",5 to 50
13,"O=S(=O)(Nc1cc(F)c(C(F)(F)F)cc1F)c1c[nH]c(-c2cccc(Br)n2)c1 [Cpd 371, 5-(6-bromo-2-pyridyl)-N-[2,5-difluoro-4-(trifluoromethyl)phenyl]-1H-pyrrole-3-sulfonamide]",0.5 to 5
14,"N#Cc1ccc(NS(=O)(=O)c2c[nH]c(-c3cccc(C(F)(F)F)n3)c2)c(F)c1 [Cpd 373, N-(4-cyano-2-fluoro-phenyl)-5-[6-(trifluoromethyl)-2-pyridyl]-1H-pyrrole-3-sulfonamide]",0.5 to 5
15,"O=S(=O)(Nc1cnc(C(F)(F)F)s1)c1c[nH]c(-c2ccccc2)c1 [Cpd 375, 5-phenyl-N-[2-(trifluoromethyl)thiazol-5-yl]-1H-pyrrole-3-sulfonamide]",5 to 50
16,"O=S(=O)(Nc1cc(Cl)c(C(F)(F)F)cc1F)c1c[nH]c(-c2ccccc2)c1 [Cpd 378, N-[5-chloro-2-fluoro-4-(trifluoromethyl)phenyl]-5-phenyl-1H-pyrrole-3-sulfonamide]",0.5 to 5
17,"O=S(=O)(Nc1cc(Cl)c(C(F)(F)F)cc1F)c1c[nH]c(-c2ccccn2)c1 [Cpd 379, N-[5-chloro-2-fluoro-4-(trifluoromethyl)phenyl]-5-pyridin-2-yl-1H-pyrrole-3-sulfonamide]",0.5 to 5
18,"N#Cc1ccc(NS(=O)(=O)c2c[nH]cc2-c2cccc3ccccc23)c(F)c1 [Cpd 381, N-(4-cyano-2-fluorophenyl)-4-naphthalen-1-yl-1H-pyrrole-3-sulfonamide]",5 to 50
19,"N#Cc1ccc(NS(=O)(=O)c2c[nH]c(-c3cccc4ccccc34)c2)c(F)c1 [Cpd 382, N-(4-cyano-2-fluorophenyl)-5-naphthalen-1-yl-1H-pyrrole-3-sulfonamide]",0.5 to 5
20,"Cc1c(C(F)(F)F)ccc(NS(=O)(=O)c2c[nH]c(-c3ccccn3)c2)c1F [Cpd 383, N-[2-fluoro-3-methyl-4-(trifluoromethyl)phenyl]-5-pyridin-2-yl-1H-pyrrole-3-sulfonamide]",5 to 50
21,"Cc1ccccc1Cc1c[nH]cc1S(=O)(=O)Nc1ccc(C#N)cc1F [Cpd 384, N-(4-cyano-2-fluorophenyl)-4-[(2-methylphenyl)methyl]-1H-pyrrole-3-sulfonamide]",0.5 to 5
22,"Cc1ccc(Cc2c[nH]cc2S(=O)(=O)Nc2ccc(C#N)cc2F)cc1 [Cpd 385, N-(4-cyano-2-fluorophenyl)-4-[(4-methylphenyl)methyl]-1H-pyrrole-3-sulfonamide]",5 to 50
23,"N#Cc1ccc(NS(=O)(=O)c2c[nH]cc2Cc2ccccc2C(F)(F)F)c(F)c1 [Cpd 386, N-(4-cyano-2-fluorophenyl)-4-[[2-(trifluoromethyl)phenyl]methyl]-1H-pyrrole-3-sulfonamide]",5 to 50
24,"N#Cc1ccc(NS(=O)(=O)c2c[nH]cc2Cc2ccc(C(F)(F)F)cc2)c(F)c1 [Cpd 387, N-(4-cyano-2-fluorophenyl)-4-[[4-(trifluoromethyl)phenyl]methyl]-1H-pyrrole-3-sulfonamide]",5 to 50
25,"N#Cc1ccc(NS(=O)(=O)c2c[nH]cc2Cc2ccccc2OC(F)(F)F)c(F)c1 [Cpd 388, N-(4-cyano-2-fluorophenyl)-4-[[2-(trifluoromethoxy)phenyl]methyl]-1H-pyrrole-3-sulfonamide]",0.5 to 5
26,"N#Cc1ccc(NS(=O)(=O)c2c[nH]cc2Cc2ccc(OC(F)(F)F)cc2)c(F)c1 [Cpd 389, N-(4-cyano-2-fluorophenyl)-4-[[4-(trifluoromethoxy)phenyl]methyl]-1H-pyrrole-3-sulfonamide]",5 to 50

# Results, then the molecule that gave them:
row,IC50 [µM],SMILES
1,< 0.5,"N#Cc1ccc(NS(=O)(=O)c2c[nH]c(-c3ncccc3Br)c2)c(F)c1 [Cpd 350, 5-(3-bromo-2-pyridyl)-N-(4-cyano-2-fluoro-phenyl)-1H-pyrrole-3-sulfonamide]"
2,0.5 to 5,"O=S(=O)(Nc1cc(F)c(C(F)(F)F)cc1F)c1c[nH]c(-c2ccccc2Cl)c1 [Cpd 351, 5-(2-chlorophenyl)-N-[2,5-difluoro-4-(trifluoromethyl)phenyl]-1H-pyrrole-3-sulfonamide]"
3,0.5 to 5,"COc1cc(F)ccc1-c1cc(S(=O)(=O)Nc2ccc(C#N)cc2F)c[nH]1 [Cpd 352, N-(4-cyano-2-fluoro-phenyl)-5-(4-fluoro-2-methoxy-phenyl)-1H-pyrrole-3-sulfonamide]"
4,< 0.5,"N#Cc1cc(F)c(NS(=O)(=O)c2c[nH]c(-c3ccccn3)c2)cc1F [Cpd 353, N-(4-cyano-2,5-difluoro-phenyl)-5-(2-pyridyl)-1H-pyrrole-3-sulfonamide]"
5,0.5 to 5,"N#Cc1cc(F)c(NS(=O)(=O)c2c[nH]c(-c3ccccn3)c2)c(F)c1 [Cpd 354, N-(4-cyano-2,6-difluoro-phenyl)-5-(2-pyridyl)-1H-pyrrole-3-sulfonamide]"
6,< 0.5,"N#Cc1cc(F)c(NS(=O)(=O)c2c[nH]c(-c3ccccn3)c2)cc1Cl [Cpd 357, N-(5-chloro-4-cyano-2-fluoro-phenyl)-5-(2-pyridyl)-1H-pyrrole-3-sulfonamide]"
7,< 0.5,"N#Cc1ccc(NS(=O)(=O)c2c[nH]c(C3=CCCCC3)c2)c(F)c1 [Cpd 358, N-(4-cyano-2-fluoro-phenyl)-5-(cyclohexen-1-yl)-1H-pyrrole-3-sulfonamide]"
8,< 0.5,"O=S(=O)(Nc1cc(F)c(OC(F)F)cc1F)c1c[nH]cc1-c1cccc(F)c1 [Cpd 360, N-[4-(difluoromethoxy)-2,5-difluoro-phenyl]-4-(3-fluorophenyl)-1H-pyrrole-3-sulfonamide]"
9,< 0.5,"CSc1cccc(Cc2c[nH]cc2S(=O)(=O)Nc2ccc(C#N)cc2F)c1 [Cpd 367, N-(4-cyano-2-fluoro-phenyl)-4-[(3-methylsulfanylphenyl)methyl]-1H-pyrrole-3-sulfonamide]"
10,< 0.5,"N#Cc1ccc(NS(=O)(=O)c2c[nH]c(-c3cccc(Cl)n3)c2)c(F)c1 [Cpd 372, 5-(6-chloro-2-pyridyl)-N-(4-cyano-2-fluoro-phenyl)-1H-pyrrole-3-sulfonamide]"
11,< 0.5,"N#Cc1ccc(NS(=O)(=O)c2c[nH]c(-c3cccc(Br)n3)c2)c(F)c1 [Cpd 374, 5-(6-bromo-2-pyridyl)-N-(4-cyano-2-fluoro-phenyl)-1H-pyrrole-3-sulfonamide]"
12,< 0.5,"N#Cc1ccc(NS(=O)(=O)c2c[nH]c(-c3cccc4cccnc34)c2)c(F)c1 [Cpd 380, N-(4-cyano-2-fluorophenyl)-5-(guinolin-8-yl)-1H-pyrrole-3-sulfonamide]"
13,< 0.5,"N#Cc1ccc(NS(=O)(=O)c2c[nH]cc2Cc2cccc(Br)c2)c(F)c1 [Cpd 391, 4-[(3-bromophenyl)methyl]-N-(4-cyano-2-fluorophenyl)-1H-pyrrole-3-sulfonamide]"
14,< 0.5,"N#Cc1ccc(NS(=O)(=O)c2c[nH]cc2Cc2ccsc2)c(F)c1 [Cpd 392, N-(4-cyano-2-fluorophenyl)-4-(thiophen-3-ylmethyl)-1H-pyrrole-3-sulfonamide]"

# — patent US20240299385A1 (ReWind Therapeutics NV, priority 2021, published 2024)
